Results published in patent US10658848B2, “Materials for use with aqueous redox flow batteries and related methods and systems” (Massachusetts Institute of Technology, priority 2014, dated 2020).
Marks after values point to notes of the source that are not given here.

Test: Qualitative cyclic voltammetry of quinoxaline electrolytes
Format: physicochemical
Description: Quinoxaline electrochemical behavior was characterized in a number of aqueous electrolytes. […] All electrochemical measurements presented in this paper were performed using a Biologic VSP-300 potentiostat. Glassy carbon electrodes were used as working electrodes in voltammetry experiments and were polished using 0.05 μm alumina suspension before performing a new set of measurements. Solution resistances were measured prior to electrochemical experiments to be 5Ω. Due to small peak currents during CV (less than 1 mA), the maximum estimated iR drop was 5 mV. During qualitative CV experiments, a 75% solution resistance compensation (iR correction) was applied during the experiment to ensure high quality data in untested systems. Quantitative CV techniques were carried with no iR correction as the small potential offset was unlikely to affect experimental results. Additionally, no iR correction was applied during RDV experiments because analyses only considered the limiting RDV current, which is unaffected by ohmic losses. All potentials given herein are presented versus the reversible hydrogen electrode (RHE), unless otherwise stated. Experimental potentials were determined versus a calibrated Ag/AgCl reference electrode and converted to potentials versus RHE using the […] equation and the pH of the solution, measured with a pH meter. All currents utilized in quantitative calculations were background corrected, assuming the background current was composed of non-faradaic, hydrogen evolution reaction and oxygen reduction reaction currents. Qualitative CV experiments were carried out in a three-electrode cell with a 0.3 cm diameter glassy carbon electrode (0.071 cm^2, CH Instruments), a platinum (Pt) wire counter electrode (CH Instruments) and a Ag/AgCl (3 M NaCl, BASi Inc.) reference electrode. […] Three-electrode cells were filled with 10 mL of solution, and the solution was bubbled with argon at a rate of 50 mL/min for 10 min prior to experiments. The argon bubbling tube was then adjusted such that it provided a blanket of argon gas over the surface of the solution. Then, ten cycles of CV were recorded at a scan rate of 100 mV/s. […] A linear slope to the front of an anodic peak (ma) and cathodic peak (mc) was estimated as a rough indicator of the overall reaction rate of either the forward or backward reaction, combining effects of both reaction kinetics and mass-transport. Achieving a slope ratio (ma/mc) of one, indicates an equally fast forward and backward overall reaction rate.

[1] = 0.45M Li2SO4/0.1M LiOH, pH 12.2
[2] = 0.495M K2SO4/0.01M KOH, pH 11.8
[3] = 0.495M Li2SO4/0.01M LiOH, pH 12.0
[4] = 0.5M K2SO4, pH 8.9, considerable degradation
[5] = 0.9M NaC2H3O2/0.1M NaOH, pH 12.7
[6] = 0.99M LiNO3/0.01M LiOH, pH 11.3
[7] = 0.99M NaC2H3O2/0.01M NaOH, pH 11.8
[8] = 0.99M NaHCO3/0.01M NaOH, pH 8.7
[9] = 0.99M NaNO3/0.01M NaOH, pH 11.6
[10] = 1M KNO3, pH 7.2, significant hydrogen evolution reaction current
[11] = 1M LiCl, pH 3.8, considerable degradation
[12] = 1M LiNO3, pH 6.0, significant hydrogen evolution reaction current
[13] = 1M NaHCO3, pH 8.7, considerable degradation

E° vs. RHE (0.45M K2SO4/0.1M KOH, pH 12.8): −0.50 V | ipa, 10/ipa, 2 (0.45M K2SO4/0.1M KOH, pH 12.8): 0.99 | ipc, 10/ipc, 2 (0.45M K2SO4/0.1M KOH, pH 12.8): 0.97 | ma/mc (0.45M K2SO4/0.1M KOH, pH 12.8): 0.51 | ΔEpp, 10/ΔEpp, 2 (0.45M K2SO4/0.1M KOH, pH 12.8): 1.05 | E° vs. RHE [1]: −0.52 V | ipa, 10/ipa, 2 [1]: 1.00 | ipc, 10/ipc, 2 [1]: 0.99 | ma/mc [1]: 0.46 | ΔEpp, 10/ΔEpp, 2 [1]: 1.02 | E° vs. RHE [2]: −0.51 V | ipa, 10/ipa, 2 [2]: 0.98 | ipc, 10/ipc, 2 [2]: 0.95 | ma/mc [2]: 0.64 | ΔEpp, 10/ΔEpp, 2 [2]: 1.08 | E° vs. RHE [3]: −0.52 V | ipa, 10/ipa, 2 [3]: 0.96 | ipc, 10/ipc, 2 [3]: 0.95 | ma/mc [3]: 0.55 | ΔEpp, 10/ΔEpp, 2 [3]: 1.06 | E° vs. RHE [4]: −0.90 ^‡ V | ipc, 10/ipc, 2 [4]: 0.45 ^‡ | ma/mc [4]: 0.91 ^‡ | ΔEpp, 10/ΔEpp, 2 [4]: 2.16 ^‡ | E° vs. RHE (0.5M Li2SO4, pH 6.6, considerable degradation): −0.81 ^‡ V | E° vs. RHE (0.9M KCl/0.1M KOH, pH 12.8): −0.45 V | ipa, 10/ipa, 2 (0.9M KCl/0.1M KOH, pH 12.8): 0.99 | ipc, 10/ipc, 2 (0.9M KCl/0.1M KOH, pH 12.8): 0.96 | ma/mc (0.9M KCl/0.1M KOH, pH 12.8): 0.46 | ΔEpp, 10/ΔEpp, 2 (0.9M KCl/0.1M KOH, pH 12.8): 1.05 | E° vs. RHE (0.9M KNO3/0.1M KOH, pH 12.8): −0.50 V | ipa, 10/ipa, 2 (0.9M KNO3/0.1M KOH, pH 12.8): 0.99 | ipc, 10/ipc, 2 (0.9M KNO3/0.1M KOH, pH 12.8): 0.98 | ma/mc (0.9M KNO3/0.1M KOH, pH 12.8): 0.53 | ΔEpp, 10/ΔEpp, 2 (0.9M KNO3/0.1M KOH, pH 12.8): 1.03 | E° vs. RHE (0.9M LiCl/0.1M LiOH, pH 12.1): −0.53 V | ipa, 10/ipa, 2 (0.9M LiCl/0.1M LiOH, pH 12.1): 1.00 | ipc, 10/ipc, 2 (0.9M LiCl/0.1M LiOH, pH 12.1): 0.99 | ma/mc (0.9M LiCl/0.1M LiOH, pH 12.1): 0.51 | ΔEpp, 10/ΔEpp, 2 (0.9M LiCl/0.1M LiOH, pH 12.1): 1.04 | E° vs. RHE (0.9M LiNO3/0.1M LiOH, pH 12.1): −0.48 V | ipa, 10/ipa, 2 (0.9M LiNO3/0.1M LiOH, pH 12.1): 0.99 | ipc, 10/ipc, 2 (0.9M LiNO3/0.1M LiOH, pH 12.1): 0.95 | ma/mc (0.9M LiNO3/0.1M LiOH, pH 12.1): 0.51 | ΔEpp, 10/ΔEpp, 2 (0.9M LiNO3/0.1M LiOH, pH 12.1): 1.10 | E° vs. RHE [5]: −0.51 V | ipa, 10/ipa, 2 [5]: 1.00 | ipc, 10/ipc, 2 [5]: 0.97 | ma/mc [5]: 0.46 | ΔEpp, 10/ΔEpp, 2 [5]: 1.04 | E° vs. RHE (0.9M NaHCO3/0.1M NaOH, pH 9.1): −0.53 V | ipa, 10/ipa, 2 (0.9M NaHCO3/0.1M NaOH, pH 9.1): 0.82 | ipc, 10/ipc, 2 (0.9M NaHCO3/0.1M NaOH, pH 9.1): 0.78 | ma/mc (0.9M NaHCO3/0.1M NaOH, pH 9.1): 1.63 | ΔEpp, 10/ΔEpp, 2 (0.9M NaHCO3/0.1M NaOH, pH 9.1): 1.56 | E° vs. RHE (0.9M NaNO3/0.1M NaOH, pH 12.5): −0.52 V | ipa, 10/ipa, 2 (0.9M NaNO3/0.1M NaOH, pH 12.5): 0.98 | ipc, 10/ipc, 2 (0.9M NaNO3/0.1M NaOH, pH 12.5): 0.98 | ma/mc (0.9M NaNO3/0.1M NaOH, pH 12.5): 0.50 | ΔEpp, 10/ΔEpp, 2 (0.9M NaNO3/0.1M NaOH, pH 12.5): 1.07 | ip,a (0.99 M KCl/0.01 M KOH, across all cycles): 0.12 mA | E° vs. RHE (0.99M KCl/0.01M KOH, pH 11.8): −0.48 V | ipa, 10/ipa, 2 (0.99M KCl/0.01M KOH, pH 11.8): 1.00 | ipc, 10/ipc, 2 (0.99M KCl/0.01M KOH, pH 11.8): 0.97 | ma/mc (0.99M KCl/0.01M KOH, pH 11.8): 0.59 | ΔEpp, 10/ΔEpp, 2 (0.99M KCl/0.01M KOH, pH 11.8): 1.02 | E° vs. RHE (0.99M KNO3/0.01M KOH, pH 11.7): −0.52 V | ipa, 10/ipa, 2 (0.99M KNO3/0.01M KOH, pH 11.7): 1.00 | ipc, 10/ipc, 2 (0.99M KNO3/0.01M KOH, pH 11.7): 0.97 | ma/mc (0.99M KNO3/0.01M KOH, pH 11.7): 0.64 | ΔEpp, 10/ΔEpp, 2 (0.99M KNO3/0.01M KOH, pH 11.7): 1.01 | E° vs. RHE (0.99M LiCl/0.01M LiOH, pH 11.4): −0.52 V | ipa, 10/ipa, 2 (0.99M LiCl/0.01M LiOH, pH 11.4): 0.99 | ipc, 10/ipc, 2 (0.99M LiCl/0.01M LiOH, pH 11.4): 0.96 | ma/mc (0.99M LiCl/0.01M LiOH, pH 11.4): 0.63 | ΔEpp, 10/ΔEpp, 2 (0.99M LiCl/0.01M LiOH, pH 11.4): 1.05 | E° vs. RHE [6]: −0.47 V | ipa, 10/ipa, 2 [6]: 0.98 | ipc, 10/ipc, 2 [6]: 0.95 | ma/mc [6]: 0.67 | ΔEpp, 10/ΔEpp, 2 [6]: 1.08 | E° vs. RHE [7]: −0.52 V | ipa, 10/ipa, 2 [7]: 1.01 | ipc, 10/ipc, 2 [7]: 0.97 | ma/mc [7]: 0.58 | ΔEpp, 10/ΔEpp, 2 [7]: 1.06 | E° vs. RHE [8]: −0.53 V | ipa, 10/ipa, 2 [8]: 0.06 | ipc, 10/ipc, 2 [8]: 0.50 | ma/mc [8]: 1.61 | ΔEpp, 10/ΔEpp, 2 [8]: 2.90 | E° vs. RHE [9]: −0.52 V | ipa, 10/ipa, 2 [9]: 1.00 | ipc, 10/ipc, 2 [9]: 0.96 | ma/mc [9]: 0.61 | ΔEpp, 10/ΔEpp, 2 [9]: 1.04 | ip,a (1 M KCl, cycle 2): 0.11 mA | ip,a (1 M KCl, cycle 10): 0.06 mA | E° vs. RHE (1M KCl, pH 5.4): −0.80 V | ipa, 10/ipa, 2 (1M KCl, pH 5.4): 0.57 | ipc, 10/ipc, 2 (1M KCl, pH 5.4): 0.56 | ma/mc (1M KCl, pH 5.4): 0.75 | ΔEpp, 10/ΔEpp, 2 (1M KCl, pH 5.4): 1.85 | E° vs. RHE [10]: −0.76 ^† V | ipa, 10/ipa, 2 [10]: 0.91 ^† | ipc, 10/ipc, 2 [10]: 1.01 ^† | ma/mc [10]: 1.51 ^† | ΔEpp, 10/ΔEpp, 2 [10]: 1.04 ^† | peak separation (1 M KOH, 1 M NaOH, or 1 M LiOH): ~150 mV | E° vs. RHE (1M KOH, pH 13.7): −0.48 V | ipa, 10/ipa, 2 (1M KOH, pH 13.7): 0.98 | ipc, 10/ipc, 2 (1M KOH, pH 13.7): 0.97 | ma/mc (1M KOH, pH 13.7): 0.42 | ΔEpp, 10/ΔEpp, 2 (1M KOH, pH 13.7): 1.04 | E° vs. RHE [11]: −0.94 ^‡ V | ipc, 10/ipc, 2 [11]: 0.08 ^‡ | ma/mc [11]: 0.96 ^‡ | ΔEpp, 10/ΔEpp, 2 [11]: 2.95 ^‡ | E° vs. RHE [12]: −0.75 ^† V | ipa, 10/ipa, 2 [12]: 0.80 ^† | ipc, 10/ipc, 2 [12]: 0.91 ^† | ma/mc [12]: 1.94 ^† | ΔEpp, 10/ΔEpp, 2 [12]: 1.11 ^† | E° vs. RHE (1M LiOH, pH 12.7): −0.55 V | ipa, 10/ipa, 2 (1M LiOH, pH 12.7): 0.98 | ipc, 10/ipc, 2 (1M LiOH, pH 12.7): 0.96 | ma/mc (1M LiOH, pH 12.7): 0.45 | ΔEpp, 10/ΔEpp, 2 (1M LiOH, pH 12.7): 1.00 | E° vs. RHE (1M NaC2H3O2, pH 8.6, two distinct reduction and oxidation peaks): −0.68 * V | E° vs. RHE [13]: −0.53 ^‡ V | ma/mc [13]: 1.51 ^‡ | E° vs. RHE (1M NaNO3, pH 6.8): −0.77 V | ipa, 10/ipa, 2 (1M NaNO3, pH 6.8): 0.12 | ipc, 10/ipc, 2 (1M NaNO3, pH 6.8): 0.46 | ma/mc (1M NaNO3, pH 6.8): 0.82 | ΔEpp, 10/ΔEpp, 2 (1M NaNO3, pH 6.8): 1.78 | E° vs. RHE (1M NaOH, pH 13.8): −0.48 V | ipa, 10/ipa, 2 (1M NaOH, pH 13.8): 0.99 | ipc, 10/ipc, 2 (1M NaOH, pH 13.8): 0.98 | ma/mc (1M NaOH, pH 13.8): 0.46 | ΔEpp, 10/ΔEpp, 2 (1M NaOH, pH 13.8): 1.01 | peak separation (KCl electrolyte with 0.01 M KOH, cycle 2): 230 mV | peak separation (KCl electrolyte with 0.1 M KOH, cycle 2): 200 mV | ratio of charge transferred between the cathodic and anodic scans (all electrolytes with pH≥11.4, within a particular CV cycle): exceeded 0.9 | redox potential E° vs. RHE (cases where quinoxaline exhibited stable performance over multiple CV cycles): ≈ −0.5 V | redox potential E° vs. RHE (electrolytes where degradation of quinoxaline was observed, not indicators of the actual redox potential): ≤ −0.75 V | peak separation (sulfate and chloride anions, at 0.01 M OH^−): < 220 mV | peak separation (sulfate and chloride anions, at 0.1 M OH^−): < 200 mV
SMILES: c1ccc2nccnc2c1 [quinoxaline]
